Results as given in US4771076A, “[(2-substituted 1,2-dihydro-1-oxo-1H-inden-5-yl)oxy]alkanesulfonic acids and salts thereof” (Merck & Co., Inc., priority 1987, dated 1988).

Test system: cerebrocortical cat brain tissue slice
Test: In vitro Cerebrocortical Cat Brain Tissue Slice Assay (inhibition of HCO3^- -stimulated swelling)
Assay type: cell-based
Settings: Felis catus, 1 h, 27 mM K^+, 10 mM HCO3^-, 37° C., 60 min incubation
Procedure: See, e.g., Bourke et al., Neurochem. Res., 8, 5 (1983), and Cragoe et al., J. Med. Chem., 25, 567 (1982).
In Vitro Cerebrocortical Cat Brain Tissue Slice Assay
Adult cats of 2-3 kg body weight were employed in tissue slice studies. Prior to sacrifice, the animals were anesthetized with ketamine hydrochloride, 10 mg/kg intramuscularly. Eight (three control, five experimental) pial surface cerebrocortical tissue slices (0.5 mm thick; approximately 150 mg initial fresh weight) were cut successively with a calibrated Stadie-Riggs fresh tissue microtome without moistening and weighed successively on a torsion balance. […]
Following the 60-minute incubation period, tissue slices were separated from incubation medium by filtration, reweighed, and homogenized in 1N HClO4 (10% w/v) for electrolyte analysis. […] Control slice swelling is expressed as microliters per gram initial preswelling fresh weight. The effectiveness of an inhibitor at a given concentration was measured by the amount of HCO3^- -stimulated swelling that occurred in its presence, computed as a percent of the maximum possible and is reported as an IC50, (See, e.g., Table I (Example 6)). Tissue and media Na^+ and K^+ levels were determined by emission flame photometry with Li^+ internal standard; Cl^- levels were determined by amperometric titration. Tissue viability during incubation is monitored by manometry.

IC50 [nM]	SMILES
20	CC1(C2CCCC2)Cc2cc(OCCCS(=O)(=O)O)c(Cl)c(Cl)c2C1=O (centres unmarked) [Example 1, Sodium 3-[(6,7-dichloro-2-cyclopentyl-2-methyl-1-oxo-2,3-dihydro-1H-inden-5-yl)oxy]propanesulfonate hydrate]
20	CC1(C2CCCC2)Cc2cc(OCCCS(=O)(=O)O)c(Cl)c(Cl)c2C1=O (single isomer, unassigned) [Example 2, Sodium (+)3-[(6,7-dichloro-2-cyclopentyl-2-methyl-1-oxo-2,3-dihydro-1H-inden-5-yl)oxy]propanesulfonate hydrate]
